From US12091409B2, “Ether linked triazoles as NRF2 activators” (ASTEX THERAPEUTICS LIMITED, priority 2016, dated 2024)

The molecules below were run on NQO1 specific enzyme activity in BEAS-2B cells (marker for NRF2 activation) (assay: BEAS-2B NQO1 MTT Assay). Settings: Homo sapiens, BEAS-2B, 48 h, NQO1 specific activity induction, 48 hours with compound.
Type: cell-based
How it was run: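 Cells plated overnight at 37° C., 5% CO2, then exposed to compound for 48 hours. NQO1 activity read in crude lysates with MTT cocktail as kinetic absorbance at 570 nm over 30 minutes. pEC50 from Delta OD/min versus log concentration with a 3-parameter fit.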

Compared with `COCCOCCn1cc(CO[C@@H](c2ccc(C)c(CN3C[C@@H](C)Oc4ccccc4S3(=O)=O)c2)C(C)(C)C(=O)O)nn1` [Example 71, (3S)-((1-(2-(2-methoxyethoxy)ethyl)-1H-1,2,3-triazol-4-yl)methoxy)-2,2-dimethyl-3-(4-methyl-3-(((R)-4-methyl-1,1-dioxido-3,4-dihydro-2H-benzo[b][1,4,5]oxathiazepin-2-yl)methyl)phenyl)propanoic acid], `COCCOCCn1cc(CO[C@H](c2ccc(C)c(CN3C[C@@H](C)Oc4ccccc4S3(=O)=O)c2)C(C)(C)C(=O)O)nn1` [Example 80, (R)-3-((1-(2-(2-methoxyethoxy)ethyl)-1H-1,2,3-triazol-4-yl)methoxy)-2,2-dimethyl-3-(4-methyl-3-(((R)-4-methyl-1,1-dioxido-3,4-dihydro-2H-benzo[b][1,4,5]oxathiazepin-2-yl)methyl)phenyl)propanoic acid] is lower in EC50: 10 to 100 nM for the first, 1 to 10 nM for the second. The second is the more potent here.

First: CCn1cc(CO[C@@H](c2ccc(C)c(CN3C[C@@H](C)Cc4ncccc4S3(=O)=O)c2)C(C)(C)C(=O)O)nn1 [Example 72, (3S)-((1-ethyl-1H-1,2,3-triazol-4-yl)methoxy)-2,2-dimethyl-3-(4-methyl-3-(((S)-4-methyl-1,1-dioxido-4,5-dihydropyrido[2,3-f][1,2]thiazepin-2(3H)-yl)methyl)phenyl)propanoic acid]
Second: CCCn1cc(CO[C@H](c2ccc(C)c(CN3C[C@@H](C)Cc4ncccc4S3(=O)=O)c2)C(C)(C)C(=O)O)nn1 [Example 89, (R)-2,2-dimethyl-3-(4-methyl-3-(((S)-4-methyl-1,1-dioxido-4,5-dihydropyrido[2,3-f][1,2]thiazepin-2(3H)-yl)methyl)phenyl)-3-((1-propyl-1H-1,2,3-triazol-4-yl)methoxy)propanoic acid]
The EC50 of the first is higher: 10 to 100 nM for the first, under 1 nM for the second.

Compared with `CCn1cc(COC(c2ccc(C)c(CN(Cc3ccccn3)S(=O)(=O)c3cccc(Br)c3)c2)C(C)(C)C(=O)O)nn1` (stereo not drawn) [Example 74, 3-(3-(((3-Bromo-N-(pyridin-2-ylmethyl)phenyl)sulfonamido)methyl)-4-methylphenyl)-3-((1-ethyl-1H-1,2,3-triazol-4-yl)methoxy)-2,2-dimethylpropanoic acid], `COCCn1cc(CO[C@H](c2ccc(C)c(CN(Cc3ccccn3)S(=O)(=O)c3cccc(C(=O)O)c3)c2)C(C)(C)C(=O)O)nn1` [Example 93, (R)-3-(N-(5-(2-carboxy-1-((1-(2-methoxyethyl)-1H-1,2,3-triazol-4-yl)methoxy)-2-methylpropyl)-2-methylbenzyl)-N-(pyridin-2-ylmethyl)sulfamoyl)benzoic acid] is higher in EC50: 10 to 100 nM for the first, 100 to 1000 nM for the second. The first is the more potent here.

First: CCn1cc(CO[C@@H](c2ccc(C)c(CN3C[C@@H](C)Cc4ccccc4S3(=O)=O)c2)C(C)(C)C(=O)O)nn1 [Example 75, (3S)-((1-ethyl-1H-1,2,3-triazol-4-yl)methoxy)-2,2-dimethyl-3-(4-methyl-3-(((S)-4-methyl-1,1-dioxido-4,5-dihydrobenzo[f][1,2]thiazepin-2(3H)-yl)methyl)phenyl)propanoic acid]
Second: CCn1cc(CO[C@H](c2ccc(C)c(CN3C[C@@H](C)Cc4ccccc4S3(=O)=O)c2)C(C)(C)C(=O)O)nn1 [Example 84]
The EC50 of the first is higher: 1 to 10 nM for the first, under 1 nM for the second. The second is the more potent here.

Compared with `CCCn1cc(CO[C@H](c2ccc(C)c(CN3C[C@H](C)Cc4ccc(F)cc4S3(=O)=O)c2)C(C)(C)C(=O)O)nn1` [Example 76, (3R)-(3-(((R)-8-fluoro-4-methyl-1,1-dioxido-4,5-dihydrobenzo[f][1,2]thiazepin-2(3H)-yl)methyl)-4-methylphenyl)-2,2-dimethyl-3-((1-propyl-1H-1,2,3-triazol-4-yl)methoxy)propanoic acid], `CCCn1cc(CO[C@H](c2ccc(C)c(CN3C[C@@H](C)Cc4ccc(F)cc4S3(=O)=O)c2)C(C)(C)C(=O)O)nn1` [Example 87, (R)-3-(3-(((S)-8-fluoro-4-methyl-1,1-dioxido-4,5-dihydrobenzo[f][1,2]thiazepin-2(3H)-yl)methyl)-4-methylphenyl)-2,2-dimethyl-3-((1-propyl-1H-1,2,3-triazol-4-yl)methoxy)propanoic acid] is lower in EC50: 1 to 10 nM for the first, under 1 nM for the second. The second is the more potent here.

`CC[C@@H]1Cc2ccccc2S(=O)(=O)N(Cc2cc([C@@H](OCc3cn(CC)nn3)C(C)(C)C(=O)O)ccc2C)C1` [Example 77, (3R)-((1-ethyl-1H-1,2,3-triazol-4-yl)methoxy)-2,2-dimethyl-3-(4-methyl-3-(((R)-4-ethyl-1,1-dioxido-4,5-dihydrobenzo[f][1,2]thiazepin-2(3H)-yl)methyl)phenyl)propanoic acid] and `CC[C@H]1Cc2ccccc2S(=O)(=O)N(Cc2cc([C@H](OCc3cn(CC)nn3)C(C)(C)C(=O)O)ccc2C)C1` [Example 81, (3S)-((1-ethyl-1H-1,2,3-triazol-4-yl)methoxy)-2,2-dimethyl-3-(4-methyl-3-(((S)-4-ethyl-1,1-dioxido-4,5-dihydrobenzo[f][1,2]thiazepin-2(3H)-yl)methyl)phenyl)propanoic acid] fall in the same range of EC50: 1 to 10 nM for the first, 1 to 10 nM for the second.

First: CCCn1cc(CO[C@H](c2ccc(C)c(CN3CC(C)(C)Oc4ccccc4S3(=O)=O)c2)C(C)(C)C(=O)O)nn1 [Example 78, (R)-3-(3-((4,4-dimethyl-1,1-dioxido-3,4-dihydro-2H-benzo[b][1,4,5]oxathiazepin-2-yl)methyl)-4-methylphenyl)-2,2-dimethyl-3-((1-propyl-1H-1,2,3-triazol-4-yl)methoxy)propanoic acid]
Second: CCCn1cc(CO[C@H](c2ccc(C)c(CN3C[C@@H](CC)Oc4ccccc4S3(=O)=O)c2)C(C)(C)C(=O)O)nn1 [Example 90, (R)-3-(3-(((R)-4-ethyl-1,1-dioxido-3,4-dihydro-2H-benzo[b][1,4,5]oxathiazepin-2-yl)methyl)-4-methylphenyl)-2,2-dimethyl-3-((1-propyl-1H-1,2,3-triazol-4-yl)methoxy)propanoic acid]
The EC50 of the first is higher: 1 to 10 nM for the first, under 1 nM for the second.

First: CCCn1cc(CO[C@H](c2ccc(C)c(CN3C[C@H](C)Cc4ccc(C(F)(F)F)cc4S3(=O)=O)c2)C(C)(C)C(=O)O)nn1 [Example 79, (R)-2,2-dimethyl-3-(4-methyl-3-(((R)-4-methyl-1,1-dioxido-8-(trifluoromethyl)-4,5-dihydrobenzo[f][1,2]thiazepin-2(3H)-yl)methyl)phenyl)-3-((1-propyl-1H-1,2,3-triazol-4-yl)methoxy)propanoic acid]
Second: CCCn1cc(CO[C@H](c2ccc(C)c(CN3C[C@@H](C)Cc4ccc(C(F)(F)F)cc4S3(=O)=O)c2)C(C)(C)C(=O)O)nn1 [Example 86, (R)-2,2-dimethyl-3-(4-methyl-3-(((S)-4-methyl-1,1-dioxido-8-(trifluoromethyl)-4,5-dihydrobenzo[f][1,2]thiazepin-2(3H)-yl)methyl)phenyl)-3-((1-propyl-1H-1,2,3-triazol-4-yl)methoxy)propanoic acid]
The EC50 of the first is higher: 1 to 10 nM for the first, under 1 nM for the second. The second is the more potent here.

Compared with `CC[C@@H]1CN(Cc2cc([C@@H](OCc3cn(CC)nn3)C(C)(C)C(=O)O)ccc2C)S(=O)(=O)c2ncccc2O1` [Example 82, (R)-3-(3-(((R)-4-ethyl-1,1-dioxido-3,4-dihydro-2H-pyrido[3,2-b][1,4,5]oxathiazepin-2-yl)methyl)-4-methylphenyl)-3-((1-ethyl-1H-1,2,3-triazol-4-yl)methoxy)-2,2-dimethylpropanoic acid], `CC[C@H]1Cc2ccccc2S(=O)(=O)N(Cc2cc([C@@H](OCc3cn(CC)nn3)C(C)(C)C(=O)O)ccc2C)C1` [Example 85, (3R)-((1-ethyl-1H-1,2,3-triazol-4-yl)methoxy)-2,2-dimethyl-3-(4-methyl-3-(((S)-4-ethyl-1,1-dioxido-4,5-dihydrobenzo[f][1,2]thiazepin-2(3H)-yl)methyl)phenyl)propanoic acid] is lower in EC50: 1 to 10 nM for the first, under 1 nM for the second. The second is the more potent here.

`CCCn1cc(CO[C@H](c2ccc(C)c(CN3C[C@@H](C)Cc4ccncc4S3(=O)=O)c2)C(C)(C)C(=O)O)nn1` [Example 83, (R)-2,2-dimethyl-3-(4-methyl-3-(((S)-4-methyl-1,1-dioxido-4,5-dihydropyrido[4,3-f][1,2]thiazepin-2(3H)-yl)methyl)phenyl)-3-((1-propyl-1H-1,2,3-triazol-4-yl)methoxy)propanoic acid] and `CCCn1cc(CO[C@H](c2ccc(C)c(CN3C[C@@H](C)Cc4ccccc4S3(=O)=O)c2)C(C)(C)C(=O)O)nn1` [Example 88, (R)-2,2-dimethyl-3-(4-methyl-3-(((S)-4-methyl-1,1-dioxido-4,5-dihydrobenzo[f][1,2]thiazepin-2(3H)-yl)methyl)phenyl)-3-((1-propyl-1H-1,2,3-triazol-4-yl)methoxy)propanoic acid] cannot be ordered by EC50: under 1 nM for the first, under 1 nM for the second.

First: CCn1cc(CO[C@H](c2ccc(C)c(CN(Cc3cccc(C(=O)O)c3)S(=O)(=O)c3ccccc3)c2)C(C)(C)C(=O)O)nn1 [Example 91, (R)-3-((N-(5-(2-carboxy-1-((1-ethyl-1H-1,2,3-triazol-4-yl)methoxy)-2-methylpropyl)-2-methylbenzyl)phenylsulfonamido)methyl)benzoic acid]
Second: CCn1cc(COC(c2ccc(C)c(CN(Cc3ccccc3)S(=O)(=O)c3cccc(C(=O)O)c3)c2)C(C)(C)C(=O)O)nn1 (stereo not drawn) [Example 95, 3-(N-benzyl-N-(5-(2-carboxy-1-((1-ethyl-1H-1,2,3-triazol-4-yl)methoxy)-2-methylpropyl)-2-methylbenzyl)sulfamoyl)benzoic acid]
The EC50 of the first is higher: 1000 to 10000 nM for the first, 100 to 1000 nM for the second.

Compared with `CCCn1cc(CO[C@H](c2ccc(C)c(CN(Cc3cccc(C(=O)O)c3)S(=O)(=O)c3cccc(C(=O)O)c3)c2)C(C)(C)C(=O)O)nn1` [Example 92, (R)-3-(N-(5-(2-carboxy-2-methyl-1-((1-propyl-1H-1,2,3-triazol-4-yl)methoxy)propyl)-2-methylbenzyl)-N-(3-carboxybenzyl)sulfamoyl)benzoic acid], `COCCn1cc(CO[C@H](c2ccc(C)c(CN(Cc3ccccc3)S(=O)(=O)c3cccc(C(=O)O)c3)c2)C(C)(C)C(=O)O)nn1` [Example 94, (R)-3-(N-benzyl-N-(5-(2-carboxy-1-((1-(2-methoxyethyl)-1H-1,2,3-triazol-4-yl)methoxy)-2-methylpropyl)-2-methylbenzyl)sulfamoyl)benzoic acid] is lower in EC50: 1000 to 10000 nM for the first, 100 to 1000 nM for the second. The second is the more potent here.
